Laboratory results taken from US7776572B2, “Method for reducing loss of enzyme activity during storage” (Corning Incorporated, priority 1996, dated 2010).
Marks after values point to notes of the source that are not given here.

Legend:
bound protein = experiment: Colloidal gold staining of bound protein after MDCK culture in media containing 5% FBS, visual; settings: colloidal gold after cell culture, visual observation
Experimental: The procedures used were as follows. Polystyrene 24-well plates were coated with the non-ionic surfactants listed in Table 5 in accordance with the procedures described in Materials and Methods. Uncoated plates were used as a control. For comparison, plates with a covalently attached acrylamide coating (Corning Costar Catalog #2500) and with a stearic acid coating were also tested. The stearic acid coating was applied in the same manner as the non-ionic surfactants again using a 0.1% (w/v) solution.
The plates were gamma sterilized at 1.5 Mrad and then inoculated with 5.6×10^4 MDCK […] per well in 1 ml of complete media containing 5% FBS (Fetal Bovine Serum). Incubation was carried out at 37° C. in a 5% CO2 atmosphere for two days. The plates were fixed and stained, and cell attachment was noted. Following this, the wells were stained using the colloidal gold technique to detect bound protein. Only visual observations were made.

[1] = system: ^125I-IgG (goat anti-mouse); experiment: Radiometric determination of IgG binding to surfactant-coated polystyrene microtiter wells; settings: for Total IgG binding, Non-Sterilized: coated polystyrene wells; for Total IgG binding, Non-Sterilized / Tight IgG binding, Non-Sterilized: not sterilized
Experimental: The hydrophobic surfaces used were flat bottom microtiter plates composed of high binding polystyrene (Corning Costar No. 2581) and medium binding polystyrene (Corning Costar No. 2587). Testing was performed with and without gamma radiation sterilization using cobalt 60 (1.5 Mrad).
The surfactants were applied to the test plates as described in Materials and Methods, followed by sterilization where indicated.
Levels of protein binding were determined using a radiolabeled protein, namely, ^125I-IgG (goat anti-mouse) purchased from DuPont/NEN. Unlabeled IgG in sodium carbonate buffer pH 9.2 was spiked with ^125I-IgG so that the final concentration of labeled IgG and cold IgG in the test solution was 10 μg/mL.
Aliquots of 0.1 milliliters of the protein solution were placed in quadruplicate in the wells of 8-well strips removed from the test microtiter plates. The wells were incubated overnight at 4° C. with shaking. The supernatants were removed from the wells, followed by three washes with 0.2 mL of PBS. The wells were then dried and individually counted to determine “total” IgG binding. After determining “total” binding, the wells were incubated for two hours in 0.2 mL of PBS-Tween (0.05%) at room temperature with shaking. The supernatants were removed from the wells followed by three washes with 0.2 mL of PBS. The wells were dried and individually counted to determine “tight” IgG binding.
Untreated high binding and medium binding plates were used as controls. A comparative experiment was also performed in which a BSA protein coating was used in place of a surfactant coating. The BSA was preabsorbed onto the walls of the wells and then washed to remove excess material. Testing was then performed using the radiolabeled IgG solution as described above.
Radiolabel measurements were performed in a double blind study at BioMolecular Assays (Woburn, Mass.). IgG binding values per microwell were converted to ng/cm^2 values using a surface area of 0.94 cm^2 for a 0.1 mL volume.

IgG [2] = experiment: IgG/Au staining of coated polystyrene, type of endgroups
Experimental: Except where indicated, the non-ionic surfactants were applied to the hydrophobic surfaces being tested as a 0.1% (weight/volume) solution in isopropanol. A sufficient amount of coating solution was used to cover the surface being testing with a thin layer of the solution (e.g., 25 μl of the solution per well for a standard 24-well plate). In some cases, the solution was applied to surface by spraying; in others, it was poured onto the surface (into the well). Except where indicated, coated samples were either dried at 70° C. for 30 minutes in an air circulated oven or dried at room temperature overnight to evaporate the isopropanol. Protein binding was determined in some examples using a colloidal gold straining procedure. In accordance with this procedure, colloidal gold becomes electrostatically attached to bound protein and is detected by measuring absorbance at 550 nanometers. Bio-Rad Laboratories' Colloidal Gold Total Protein Stain was used for this purpose, with absorbance being measured with a Cambridge Technologies Plate Reader (No. 7520). The non-ionic surfactants listed in Table 6 were tested for their ability to produce a low binding surface using the techniques described in Materials and Methods. Polystyrene was used as the hydrophobic test surface and IgG/Au staining was used as the readout.

Horse IgG = experiment: Protein binding by colloidal gold staining, coated medium binding polystyrene plates; settings: coated medium binding PS; IgG 10 μg/ml, pH 9.4
Experimental: Except where indicated, the non-ionic surfactants were applied to the hydrophobic surfaces being tested as a 0.1% (weight/volume) solution in isopropanol. A sufficient amount of coating solution was used to cover the surface being testing with a thin layer of the solution (e.g., 25 μl of the solution per well for a standard 24-well plate). In some cases, the solution was applied to surface by spraying; in others, it was poured onto the surface (into the well). Except where indicated, coated samples were either dried at 70° C. for 30 minutes in an air circulated oven or dried at room temperature overnight to evaporate the isopropanol.
Protein binding was determined in some examples using a colloidal gold straining procedure. In accordance with this procedure, colloidal gold becomes electrostatically attached to bound protein and is detected by measuring absorbance at 550 nanometers. Bio-Rad Laboratories' Colloidal Gold Total Protein Stain was used for this purpose, with absorbance being measured with a Cambridge Technologies Plate Reader (No. 7520).
The surfactants were coated onto medium binding polystyrene plates (Corning Costar No. 2587) as described in Material and Methods.
The plates were incubated with IgG as follows: 0.1 ml of Horse IgG (Pierce Labs) at a working concentration of 10 μg/ml in 0.10M NaHCO3 buffer (pH9.4) were added to each well, incubated 30 minutes on a rocker table, and rinsed with dI H2O. The plates were gold stained overnight (0.3 ml/well), rinsed in dI H2O, air dried, and absorbance was measured at 550 nm.

[3] = system: BSA protein (Bovine Serum Albumin, Fraction V); experiment: BSA binding to coated polystyrene 24-well plates at different pH, colloidal gold stain; settings: for Absorbance (550 nm) pH = 9.2: BSA 10 μg/ml in 0.10 M NaHCO3 buffer; for Absorbance (550 nm) pH = 7.4: BSA 10 μg/ml in 0.10 M PBS; for Absorbance (550 nm) pH = 4.6: BSA 10 μg/ml in 0.10 M acetate buffer
Experimental: Polystyrene plates having 24 wells (Corning Costar #9447) were coated as described in Materials and Methods.
BSA protein (Bovine Serum Albumin, Fraction V, Sigma) was prepared at 10 μg/ml in 0.10 M acetate buffer (pH=4.6), in 0.10 M PBS (pH=7.4), and in 0.10 M NaHCO3 buffer (pH=9.2). Wells of each coated plate, along with uncoated controls, were aliquoted 0.50 ml each of the protein solutions. The samples were run in triplicate.
The plates were placed on a rocker table for 30 minutes at 23° C. The protein solutions were then emptied from the plates, and the wells were rinsed three times with dl H2O. Thereafter, 1.0 ml of colloidal gold stain was added to each well (see Materials and Methods). The plates were placed on a rocker table overnight, rinsed three times with dI H2O, and air dried. Absorbance at 550 nm was then read using the Cambridge Technologies Plate Reader.

IgG [4] = experiment: Coating durability using water washes, IgG binding by colloidal gold; settings: for Absorbance (550 nm) Initial: coated polystyrene, no water wash; for Absorbance (550 nm) 1 Time 1 hr 23° C. / Absorbance (550 nm) 1 Time 24 hr 23° C. / Absorbance (550 nm) 1 Time 24 hr 37° C. / Absorbance (550 nm) 1 Time 24 hr 70° C.: dI H2O wash 1 time; for Absorbance (550 nm) 6 Times 30 min each 23° C.: dI H2O wash 6 times
Experimental: Polystyrene plates having 24 wells (Corning Costar #9447) were coated with these surfactants as described in Materials and Methods. Durability was tested by adding dI H2O to the wells of a test plate (3.0 mls/well), following which the plate was placed on a rocker table. […] The protein solution was incubated with the plate on a rocker table for 30 minutes at 23° C., following which the plate was H2O rinse 3× (3 mls each time). The colloidal gold staining procedure described above was used to reveal bound protein. The staining comprised an overnight incubation on a rocker table at 23° C., a dI H2O rinse, drying at room temperature, and reading at 550 nm.

HRP-Goat A'Mouse IgG = experiment: Enzymatic determination of protein binding to coated medium binding polystyrene plate; settings: coated medium binding PS; versus uncoated high binding polystyrene plate; absorbance 405 nm
Experimental: The surfactants were coated onto a medium binding polystyrene plate (Corning Costar No. 2587) as described in Material and Methods. A medium binding polystyrene plate (Corning Costar No. 2587) and a high binding polystyrene plate (Corning Costar No. 2581) were used as controls.
(a) HRP-Goat A'Mouse IgG: Kirkegaard & Perry Laboratories, Inc. Catalog No. 074-1806. Stock solution: 0.5 mg/ml; working concentration: 0.04 μg/ml. The working concentration was obtained by adding 11 μl of the stock solution per 25 mls of PBS pH 7.4 to produce a work stock (WS), and then diluting 1:6 (i.e., 10 mls WS+50 mls PBS pH 7.4).
(1) 100 μl-well of HRP-Goat A'Mouse IgG at a concentration of 0.04 μg/ml were added to the test wells and incubated for 1 hour at room temperature.
(2) The wells were then washed 5 times with the 1M wash solution. Each wash include a 5 minute soak followed by decanting.
(3) 100 μl/well of substrate (30 mls ABTS+30 mls H2O2) were added to the test wells and incubated for 15 minutes at room temperature in the dark.
(4) 100 μl/well of stopping solution (1% SDS) were added to the test wells.
(5) The plates were then shaken and read at 405 nm.
(6) Reduction in binding was determined by comparing the absorbance measured in step (5) with the absorbance measured for a high binding polystyrene plate which had not been treated with a non-ionic surfactant but otherwise subjected to steps (1) to (5).

BSA = experiment: Polymer blends molded into petri dishes, BSA binding by colloidal gold
Experimental: (§1) Low binding non-ionic surfactant molecules were blended at 5% (except as noted in Table 13) into a base polymer using a twin screw extruder, then injection molded into the shape of 35 mm petri dishes. Proteins tested were BSA and Fetal Bovine Serum (FBS). Protein binding was determined using a colloidal gold staining procedure as described above. In the case of the polypropylene and EVA blends, a silver enhancer was used (Sigma Chem. Co., St, Louis, Mo., Kit #SE-100).

Fetal Bovine Serum (FBS) = experiment: Polymer blends molded into petri dishes, FBS protein binding by colloidal gold
Experimental: as §1

[5] = after two hours in PBS-Tween (0.05%)
[6] = blended at 5% into polypropylene, silver enhancer

CCCCCCCCCCCCCCCCCC(=O)O [STEARIC ACID, reference compound]
Visual Color Upon Protein Staining (bound protein): Very dark

BSA Protein: BSA protein coating preabsorbed onto the wells, used in place of a surfactant coating [reference compound]
Total IgG binding, Non-Sterilized ([1]; after three PBS washes): 594 ng/cm^2
Tight IgG binding, Non-Sterilized [1, 5]: 173 ng/cm^2

PEO(200) DI-OLEATE
Bound Protein Absorbance at 550 nm (IgG [2]): 0.15

PEO(600) DI-STEARATE
Bound Protein Absorbance at 550 nm (IgG [2]): 0.10

SORBITOL MONO-LAURATE
IgG Protein Binding Absorbance (550 nm) (Horse IgG): 0.00
Absorbance (550 nm) pH = 9.2 [3]: 0.00
Absorbance (550 nm) pH = 7.4 [3]: 0.00
Absorbance (550 nm) pH = 4.6 [3]: 0.00
Absorbance (550 nm) Initial (IgG [4]): 0.00
Absorbance (550 nm) 1 Time 1 hr 23° C. (IgG [4]): 0.00
Absorbance (550 nm) 1 Time 24 hr 23° C. (IgG [4]): 0.00
Absorbance (550 nm) 1 Time 24 hr 37° C. (IgG [4]): 0.00
Absorbance (550 nm) 1 Time 24 hr 70° C. (IgG [4]): 0.00-0.02
Absorbance (550 nm) 6 Times 30 min each 23° C. (IgG [4]): 0.02-0.06

SORBITOL MONO-STEARATE
% Reduction in Protein Binding (HRP-Goat A'Mouse IgG): 83.1* %
IgG Protein Binding Absorbance (550 nm) (Horse IgG): 0.00
Absorbance (550 nm) pH = 9.2 [3]: 0.00
Absorbance (550 nm) pH = 7.4 [3]: 0.00
Absorbance (550 nm) pH = 4.6 [3]: 0.00
Absorbance (550 nm) Initial (IgG [4]): 0.00
Absorbance (550 nm) 1 Time 1 hr 23° C. (IgG [4]): 0.00
Absorbance (550 nm) 1 Time 24 hr 23° C. (IgG [4]): 0.00
Absorbance (550 nm) 1 Time 24 hr 37° C. (IgG [4]): 0.00
Absorbance (550 nm) 1 Time 24 hr 70° C. (IgG [4]): 0.00
Absorbance (550 nm) 6 Times 30 min each 23° C. (IgG [4]): 0.00
Bound Protein Absorbance (550 nm) BSA (BSA; [6]): 0.000
Bound Protein Absorbance (550 nm) FBS (Fetal Bovine Serum (FBS); [6]): 0.000

SORBITOL TRI-STEARATE
Bound Protein Absorbance (550 nm) BSA (BSA; blended at 5% into polystyrene): 0.005
Bound Protein Absorbance (550 nm) FBS (Fetal Bovine Serum (FBS); blended at 5% into polystyrene): 0.008

CCCCCCCC/C=C\CCCCCCCC(=O)OCC(O)CO (stereo not drawn) [GLYCEROL MONO-OLEATE]
% Reduction in Protein Binding (HRP-Goat A'Mouse IgG): 92.4%

PEO(400) DI-STEARATE
Bound Protein Absorbance at 550 nm (IgG [2]): 0.10

PEO(400) DI-OLEATE
Bound Protein Absorbance at 550 nm (IgG [2]): 0.15

PEO(4) SORBITOL MONO-LAURATE
Total IgG binding, Non-Sterilized ([1]; after three PBS washes): 4 ng/cm^2
Total IgG binding, Sterilized ([1]; gamma sterilized (1.5 Mrad), after three PBS washes): 5 ng/cm^2
Tight IgG binding, Sterilized ([1]; gamma sterilized (1.5 Mrad), after two hours in PBS-Tween (0.05%)): 3 ng/cm^2
Tight IgG binding, Non-Sterilized [1, 5]: 2 ng/cm^2
% Reduction in Protein Binding (HRP-Goat A'Mouse IgG): 99.8%
IgG Protein Binding Absorbance (550 nm) (Horse IgG): 0.00
Bound Protein Absorbance at 550 nm (IgG [2]): 0.00
Absorbance (550 nm) Initial (IgG [4]): 0.00
Absorbance (550 nm) 1 Time 1 hr 23° C. (IgG [4]): 0.09
Absorbance (550 nm) 1 Time 24 hr 23° C. (IgG [4]): 0.10
Absorbance (550 nm) 1 Time 24 hr 37° C. (IgG [4]): 0.10
Absorbance (550 nm) 1 Time 24 hr 70° C. (IgG [4]): 0.10
Absorbance (550 nm) 6 Times 30 min each 23° C. (IgG [4]): 0.10
Bound Protein Absorbance (550 nm) BSA (BSA; [6]): 0.060
Bound Protein Absorbance (550 nm) FBS (Fetal Bovine Serum (FBS); [6]): 0.056
